From patent publication US20210355106A1, “NEW AMINO-PYRIMIDONYL-PIPERIDINYL DERIVATIVES, A PROCESS FOR THEIR PREPARATION AND PHARMACEUTICAL COMPOSITIONS CONTAINING THEM” (LES LABORATOIRES SERVIER, priority 2018, published 2021)
Counter-ions that a name gives are not always drawn.

Biological target: T1, USP7 (Homo sapiens, UniProt Q93009, C315A)
T1 construct: 0.25 nM His-His-USP7 (aa208-560, |C315A|) was incubated with compound; His-His (N)
Assay: Inhibition of USP7 by Fluorescence Intensity (FLINT) readings, Ubiquitin-Rhodamine-110 substrate
Format: biochemical
Details: 0.25 nM His-His-USP7 (aa208-560), 60 minutes at 30° C. preincubation; Ki determined from IC50 according to Cer et al.
Description: USP7 activity was measured using Rhodamine-110 c-terminal labelled Ubiquitin as a substrate (UbiQ Bio), Incubation with USP7 results in the release of Rhodamine-110 leading to an increase in fluorescence which can be used in the continuous measurement of USP7 activity.
The USP7 reactions were performed in a 50 μL volume, in 384 well black solid low binding plates (Corning #3575). The reaction buffer consisted of 100 mM Bicine pH 8.0, 0.01% TritonX 100, 1 mM TCEP, and 10% DMSO.
0.25 nM His-His-USP7 (aa208-560, |C315A|) was incubated with compound (final concentration 10% DMSO) for 60 minutes at 30° C. The reaction was then initiated by the addition of 50) nM Ubiquitin-Rhodamine-110 substrate or 4 μM Ubiquitin-Rhodamine-110 substrate and the plate read every 3 minutes for 21 minutes to measure the release of Rhodamine-110. Fluorescence Intensity (FLINT) readings were measured using a Biomek Neo plate reader (Ex.485 nm, Em.535 nm).
The inhibition of increasing doses of compound was expressed as a percentage reduction in kinetic rate compared to the kinetic rates established between ‘DMSO only’ and ‘total inhibition’ controls (no USP7). The inhibitory concentrations that gave a 50% reduction in kinetic rate (IC50) were determined, from 11-point dose response curves, in XL-Fit using a 4-Parameter Logistic Model 205 (Sigmoidal Dose-Response Model). The K, values were determined from the IC50 values according to Cer et al. Nucleic Acids Res. 2009, July 1; 37 (WebServer issue): W441-W445.

T1 sequence (Q93009 208-560 C315A): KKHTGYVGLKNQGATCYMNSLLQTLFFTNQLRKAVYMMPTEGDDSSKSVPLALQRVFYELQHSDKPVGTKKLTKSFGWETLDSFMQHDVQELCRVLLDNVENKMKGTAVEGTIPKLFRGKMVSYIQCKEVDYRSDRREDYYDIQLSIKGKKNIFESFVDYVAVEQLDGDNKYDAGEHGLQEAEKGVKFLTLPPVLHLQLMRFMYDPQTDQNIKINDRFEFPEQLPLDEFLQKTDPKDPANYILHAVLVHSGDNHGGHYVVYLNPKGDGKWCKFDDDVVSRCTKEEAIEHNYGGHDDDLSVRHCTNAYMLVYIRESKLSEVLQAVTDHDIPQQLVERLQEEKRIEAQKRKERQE

Row | Compound | Ki
1 | Nc1c(Oc2ccc(F)cc2)ncn(CC2(O)CCN(C(=O)[C@@H]3CCN(C(=O)NCc4ccccc4)C[C@H]3c3ccccc3)CC2)c1=O [Example 79, (3R,4R)-4-[4-[[5-amino-4-(4-fluorophenoxy)-6-oxo-pyrimidin-1-yl]methyl]-4-hydroxy-piperidine-1-carbonyl]-N-benzyl-3-phenyl-piperidine-1-carboxamide] | 121 nM
2 | COc1cc(Oc2ncnc(OC[C@@]3(O)CCN(C(=O)[C@@H]4CCN(C(=O)OC(C)(C)C)C[C@H]4c4ccccc4)CC3(F)F)c2N)ccc1F [Example 135] | 206 nM
3 | CC(C)(C)OC(=O)N1CC[C@@H](C(=O)N2CC[C@](O)(Cn3cnc(Oc4ccccc4)c(N)c3=O)C(F)(F)C2)[C@H](c2ccccc2)C1 [Example 9, tert-butyl (3R,4R)-4-[(4S)-4-[(5-amino-6-oxo-4-phenoxy-pyrimidin-1-yl)methyl]-3,3-difluoro-4-hydroxy-piperidine-1-carbonyl]-3-phenyl-piperidine-1-carboxylate] | 82.5 nM
4 | Nc1c(Oc2cccc(OC(F)(F)F)c2)ncn(CC2(O)CCN(C(=O)[C@@H]3CCNC[C@H]3c3ccccc3)CC2)c1=O [Example 19, 5-amino-3-[[4-hydroxy-1-[(3R,4R)-3-phenylpiperidine-4-carbonyl]-4-piperidyl]methyl]-6-[3-(trifluoromethoxy)phenoxy]pyrimidin-4-one hydrochloride] | 344 nM
5 | CC(C)(C)OC(=O)N1CC[C@@H](C(=O)N2CCC(O)(Cn3cnc(Oc4cccc(OC(F)(F)F)c4)c(N)c3=O)CC2)[C@H](c2ccccc2)C1 [Example 6] | 398 nM
6 | CC(C)(C)OC(=O)N1CC[C@@H](C(=O)N2CCC(O)(Cn3cnc(Oc4ccc(Cl)c(F)c4)c(N)c3=O)CC2)[C@H](c2ccccc2)C1 [Example 3, tert-butyl (3R,4R)-4-[4-[[5-amino-4-(4-chloro-3-fluoro-phenoxy)-6-oxo-pyrimidin-1-yl]methyl]-4-hydroxy-piperidine-1-carbonyl]-3-phenyl-piperidine-1-carboxylate] | 125 nM
7 | Nc1c(Oc2ccc(F)cc2)ncn(CC2(O)CCN(C(=O)[C@@H]3CCNC[C@H]3c3ccccc3)CC2)c1=O [Example 21, 5-amino-6-(4-fluorophenoxy)-3-[[4-hydroxy-1-[(3R,4R)-3-phenylpiperidine-4-carbonyl]-4-piperidyl]methyl]pyrimidin-4-one] | 103 nM
8 | Nc1c(Oc2ccc(F)cc2)ncn(CC2(O)CCN(C(=O)[C@@H]3CCN(C(=O)c4ccc5nc[nH]c(=O)c5c4)C[C@H]3c3ccccc3)CC2)c1=O [Example 57, 6-[(3R,4R)-4-(4-t[5-amino-4-(4-fluorophenoxy)-6-oxopyrimidin-[(6N)-yl]methyl}-4-hydroxypiperidine-1-carbonyl)-3-phenylpiperidine-1-carbonyl]quinazolin-4(3n)-one] | 5.1 nM
9 | CC(C)(O)CN1CC[C@@H](C(=O)N2CCC(O)(Cn3cnc(Oc4ccc(F)cc4)c(N)c3=O)CC2)[C@H](c2ccccc2)C1 [Example 73, 5-amino-6-(4-fluorophenoxy)-3-[[4-hydroxy-1-[(3R,4R)-1-(2-hydroxy-2-methyl-propyl)-3-phenyl-piperidine-4-carbonyl]-4-piperidyl]methyl]pyrimidin-4-one] | 326 nM
10 | COc1cc(Cl)cc(Oc2ncn(CC3(O)CCN(C(=O)[C@@H]4CCN(C(=O)OC(C)(C)C)C[C@H]4c4ccccc4)CC3)c(=O)c2N)c1 [Example 2, tert-butyl (3R,4R)-4-[4-[[5-amino-4-(3-chloro-5-methoxy-phenoxy)-6-oxo-pyrimidin-1-yl]methyl]-4-hydroxy-piperidine-1-carbonyl]-3-phenyl-piperidine-1-carboxylate] | 191 nM
11 | Nc1c(Oc2ccc(F)cc2)ncn(CC2(O)CCN(C(=O)[C@@H]3CCN(C(=O)Nc4nc(C(F)(F)F)cs4)C[C@H]3c3ccccc3)CC2)c1=O [Example 88, (3R,4R)-4-[4-[[5-amino-4-(4-fluorophenoxy)-6-oxo-pyrimidin-1-yl]methyl]-4-hydroxy-piperidine-1-carbonyl]-3-phenyl-N-[4-(trifluoromethyl)thiazol-2-yl]piperidine-1-carboxamide] | 187 nM
12 | COc1cc(Oc2ncn(CC3(O)CCN(C(=O)[C@@H]4CCN(C(=O)OC(C)(C)C)C[C@H]4c4ccccc4)CC3)c(=O)c2N)ccc1F [Example 4, tert-butyl (3R,4R)-4-[4-[[5-amino-4(4-fluoro-3-methoxy-phenoxy)-6-oxo-pyrimidin-1-yl]methyl]-4-hydroxy-piperidine-1-carbonyl]-3-phenyl-piperidine-1-carboxylate] | 115 nM
13 | Nc1c(Oc2ccc(Cl)cc2)ncn(CC2(O)CCN(C(=O)[C@@H]3CCNC[C@H]3c3ccccc3)CC2)c1=O [Example 14, 5-amino-6-(4-chlorophenoxy)-3-[[4-hydroxy-1-[(3R,4R)-3-phenylpiperidine-4-carbonyl]-4-piperidyl]methyl]pyrimidin-4-one hydrochloride] | 115 nM
14 | CC(C)(C)OC(=O)N1CC[C@@H](C(=O)N2CCC(O)(Cn3cnc(Oc4ccccc4)c(N)c3=O)CC2)[C@H](c2ccccc2)C1 [Example 7, tert-butyl (3R,4R)-4-[4-[(5-amino-6-oxo-4-phenoxy-pyrimidin-1-yl)methyl]-4-hydroxy-piperidine-1-carbonyl]-3-phenyl-piperidine-1-carboxylate] | 137 nM

More lines, now with the values ahead:

Row | Ki | Compound
15 | 98.2 nM | COc1cc(Oc2ncn(C[C@@]3(O)CCN(C(=O)[C@@H]4CCN(Cc5ccncn5)C[C@H]4c4ccccc4)CC3(F)F)c(=O)c2N)ccc1F [Example 220, 5-amino-3-[[(4S)-3,3-difluoro-4-hydroxy-1-[(3R,4R)-3-phenyl-1-(pyrimidin-4-ylmethyl)piperidine-4-carbonyl]-4-piperidyl]methyl]-6-(4-fluoro-3-methoxy-phenoxy)pyrimidin-4-one]
16 | 345 nM | Nc1c(Oc2ccc(F)cc2)ncn(CC2(O)CCN(C(=O)[C@@H]3CCN(C(=O)NCC(F)(F)F)C[C@H]3c3ccccc3)CC2)c1=O [Example 90]
17 | 203 nM | CC(C)C1(N2CC[C@@H](C(=O)N3CCC(O)(Cn4cnc(Oc5ccc(F)cc5)c(N)c4=O)CC3)[C@H](c3ccccc3)C2)COC1 [Example 112, 5-amino-6-(4-fluorophenoxy)-3-[[4-hydroxy-1-[(3R,4R)-1-(3-isopropyloxetan-3-yl)-3-phenyl-piperidine-4-carbonyl]-4-piperidyl]methyl]pyrimidin-4-one]
18 | 214 nM | Nc1c(Oc2cccnc2)ncn(CC2(O)CCN(C(=O)[C@@H]3CCNC[C@H]3c3ccccc3)CC2)c1=O [Example 151, 5-amino-3-[[4-hydroxy-1-[(3R,4R)-3-phenylpiperidine-4-carbonyl]-4-piperidyl]methyl]-6-(3-pyridyloxy)pyrimidin-4-one, hydrochloride]
19 | 30.6 nM | CC1(N2CC[C@@H](C(=O)N3CCC(O)(Cn4cnc(Oc5ccccc5)c(N)c4=O)CC3)[C@H](c3ccccc3)C2)COC1 [Example 113, 5-amino-3-[[4-hydroxy-1-[(3R,4R)-1-(3-methyloxetan-3-yl)-3-phenyl-piperidine-4-carbonyl]-4-piperidyl]methyl]-6-phenoxy-pyrimidin-4-one]
20 | 182 nM | Nc1c(Oc2ccc(F)cc2)ncn(CC2(O)CCN(C(=O)[C@@H]3CCN(C4(c5ccc(F)cc5)COC4)C[C@H]3c3ccccc3)CC2)c1=O [Example 110, 5-amino-6-(4-fluorophenoxy)-3-[[1-[(3R,4R)-1-[3-(4-fluorophenyl)oxetan-3-yl]-3-phenyl-piperidine-4carbonyl]-4-hydroxy-4-piperidyl]methyl]pyrimidin-4-one]
21 | 312 nM | CC1(N2CC[C@@H](C(=O)N3CCC(O)(Cn4cnc(Oc5ccc(F)cc5)c(N)c4=O)CC3)[C@H](c3ccccc3)C2)COC1 [Example 111, 5-amino-6-(4-fluorophenoxy)-3-[[4-hydroxy-1-[(3R,4R)-1-(3-methyloxetan-3-yl)-3-phenyl-piperidine-4-carbonyl]-4-piperidyl]methyl]pyrimidin-4-one]
22 | 226 nM | CC(C)(C)OC(=O)N1CC[C@@H](C(=O)N2CCC(O)(Cn3cnc(Oc4cccnc4)c(N)c3=O)CC2)[C@H](c2ccccc2)C1 [Example 137, tert-butyl (3R,4R)-4-[4-[[5-amino-6-oxo-4-(3-pyridyloxy)pyrimidin-1-yl]methyl]-4-hydroxy-piperidine-1-carbonyl]-3-phenyl-piperidine-1-carboxylate]
23 | 8 nM | Nc1c(Oc2ccc(F)cc2)ncn(CC2(O)CCN(C(=O)[C@@H]3CCN(C(=O)c4cccc(C5CCCNC5)c4)C[C@H]3c3ccccc3)CC2)c1=O (stereo partly drawn) [Example 116, 5-amino-6-(4-fluorophenoxy)-3-[(4-hydroxy-1-((3R,4R)-3-phenyl-1-[3-(piperidin-3-yl)benzoyl]piperidine-4-carbonyl}piperidin-4-yl)methyl]pyrimidin-4(3H)-one]
24 | 140 nM | COc1ccc(C2(N3CC[C@@H](C(=O)N4CCC(O)(Cn5cnc(Oc6ccc(F)cc6)c(N)c5=O)CC4)[C@H](c4ccccc4)C3)COC2)cc1 [Example 156, 5-amino-6-(4-fluorophenoxy)-3-[[4-hydroxy-1-[(3R,4R)-1-[3-(4-methoxyphenyl)oxetan-3-yl]-3-phenyl-piperidine-4-carbonyl]-4-piperidyl]methyl]pyrimidin-4-one]
